Data taken from PubChem BioAssay (NCI).
Several values for one entry are separate records, joined by “and”; a condition that tells them apart may be missing. Equal entries are not always repeated.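 These data come from cells grown in 96-well plates and exposed to compound for 48 hours at five concentrations. Here, GI50 denotes the concentration required for 50% inhibition of growth. At the TGI there is no net growth.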

test system: MDA-MB-468 breast; experiment: inhibition of tumour cell growth, NCI panel, 48 h

First: COc1ccc(C2CC(=O)Nc3c2c(C)nn3-c2nc3ccccc3[nH]2)cc1OC (configuration not stated)
Second: COc1cc2cc(C(=O)Nc3ccccc3)c(N)nc2cc1OC
The GI50 of the first is 7.1-fold lower: 3.09 µM for the first, 21.9 µM for the second.

Compared with `Cc1ccccc1N=C(c1ccccc1)C1C(=O)c2ccccc2C1=O`, `Nc1cc2c3ccccc3ccc2c2ccccc12` is higher in GI50: 6.22 µM for the first, greater than 100 µM for the second.

Compared with `O=[N+]([O-])c1ccc(NC(c2ccccc2)c2ccc3cccnc3c2O)cc1` (configuration not stated), `Clc1ccc(Nc2nnc(COc3ccccc3)c3ccccc23)cc1` is 4.1-fold higher in GI50: 0.363 µM for the first, 1.49 µM for the second.

First: c1ccc2c(c1)CCCc1nnc3nc4ccccc4n3c1-2
Second: Nc1nc(N)c2c(n1)NC(c1ccc(Cl)cc1)C1CCc3ccccc3C1=N2 (configuration not stated)
The GI50 of the first is 4.1-fold higher: 6.55 µM for the first, 1.6 µM for the second.

First: COc1ccc(CNCCN2C(=O)c3ccc4c5c(ccc(c35)C2=O)C(=O)N(CCNCc2ccc(OC)c(OC)c2OC)C4=O)c(OC)c1OC
Second: COc1ccc(COc2ccc(Cc3cnc(N)nc3N)cc2OC)cc1
The GI50 of the first is 40-fold lower: 0.0822 µM for the first, 3.27 µM for the second.

First: CS(=O)(=O)Nc1cc(-c2ccc3ncnc(Nc4ccc(OCc5ccccn5)c(Cl)c4)c3c2)cnc1Cl
Second: O=C(COc1ccc(Cl)cc1Cl)NNc1ccc([N+](=O)[O-])cc1
The GI50 of the first is 240-fold lower: 0.156 µM for the first, 37.5 µM for the second.

Going from `O=C1NC(=O)/C(=C/c2ccc3nccc(-c4ccncc4)c3c2)S1` to `Fc1ccc(Nc2ccnc(N3CCN(c4ccnc5cc(Cl)ccc45)CC3)n2)cc1`, the GI50 rises from 0.185 µM to 2.41 µM (13-fold).

Going from `O=c1[nH]c(=O)n(C2C[C@@H](O)[C@@H](CO)O2)cc1F` (some centres not stated) to `C#Cc1cccc(NC(=O)C2CCCCN2C(=O)CCl)c1` (configuration not stated), the GI50 rises from 0.0444 µM to 11.2 µM (250-fold).

`O=C(Nc1cccc(Cl)c1)Nc1cc(C(F)(F)F)ccc1Cl` and `O=C(Nc1c(Cl)cccc1Cl)Oc1cccc2cccnc12` are within 1.5-fold of each other in GI50: 1.99 µM for the first, 2.91 µM for the second.

Going from `COc1ccc(N2CCN(c3nc(-c4ccccn4)nc4sc5c(c34)CCCCCC5)CC2)cc1` to `COc1cc(N2CCN(C(C)C)CC2)ccc1Nc1nc(Nc2ccc(F)cc2C(N)=O)c2cc[nH]c2n1`, the GI50 falls from 4.11 µM to 0.999 µM (4.1-fold).

Compared with `COc1cc2cc(Oc3ccc(NC(=O)c4cccc(C(F)(F)F)c4)cc3)c(C)nc2cc1OCCN1CCCCC1`, `COc1cccc(/C=C/C(=O)c2cc3c(N)c(C(=O)Nc4ccccc4)sc3nc2C)c1` is 16-fold lower in GI50: 14.1 µM for the first, 0.906 µM for the second.

Going from `CCCCCCCN(CCCCCCC)C(=N)c1ccc(OC)c2ccccc12` to `Cn1cc(-c2nc(-c3c[nH]c4ccccc34)cs2)c2cccnc21`, the GI50 falls from 1.23 µM to 0.252 µM (4.9-fold).

Going from `COC1C[C@H](O[C@@H]2C[C@H](O[C@@H]3C[C@H](O[C@@H]4C(=O)c5c(cc6cc(O[C@H]7C[C@@H](O[C@H]8C[C@@H](O)[C@H](O)C(C)O8)[C@H](O)C(C)O7)c(C)c(O)c6c5O)C[C@H]4C(OC)C(=O)[C@@H](O)[C@@H](C)O)OC(C)[C@H]3O)OC(C)[C@@H]2O)OC(C)[C@@H]1O` (some centres not stated) to `C[C@H]1O[C@@H](O[C@H]2[C@@H](O)C[C@H](O[C@H]3[C@@H](O)C[C@H](O[C@H]4CC[C@]5(C)C6CC[C@]7(C)[C@@H](C8=CC(=O)OC8)CC[C@]7(O)C6CC[C@@H]5C4)O[C@@H]3C)O[C@@H]2C)C[C@H](O)[C@@H]1O` (some centres not stated), the GI50 falls from 0.109 µM to 0.0667 µM (1.6-fold).

Going from `C=C1C(=O)O[C@H]2[C@H]1CC/C(COC(=O)NCCc1ccc(Br)cc1)=C\CC[C@@]1(C)O[C@@H]21` to `CCN1C(=O)N(CC)C2C1NN=c1s/c(=C\c3ccc(Br)cc3)c(=O)n12` (configuration not stated), the GI50 falls from 0.841 µM to 0.0697 µM (12-fold).

`CC(=O)OCc1cc[c]([Hg][Cl])o1` and `O=C(/C=C/c1cc2ccccc2[nH]c1=O)c1ccc(O)cc1` are within 1.5-fold of each other in GI50: 1.5 µM for the first, 2.12 µM for the second.

First: Cc1cccc(Nc2ncc(-c3ccccc3)o2)c1
Second: CC1(/C=C/c2ccc(-c3ccccc3)cc2)CCn2cnc3ncnc(c32)N1O (configuration not stated)
The GI50 of the first is 26-fold higher: 7.05 µM for the first, 0.276 µM for the second.

`O=C(Nc1n[nH]c2cc(-c3ccc(F)cc3)ccc12)C1CC1` and `Cc1c(-c2c(F)cc(C(N)=O)c3[nH]c4c(c23)CC[C@H](C(C)(C)O)C4)cccc1-n1c(=O)c2cccc(F)c2n(C)c1=O` are within 1.5-fold of each other in GI50: 3.42 µM for the first, 3.06 µM for the second.

Going from `c1ccc(OCC[P+](c2ccccc2)(c2ccccc2)c2ccccc2)cc1` to `CN1CCN(CCCn2c3c(sc4ncccc43)c(=O)n3nnc(-c4ccccc4)c23)CC1`, the GI50 rises from 0.152 µM to 1.72 µM (11-fold).

With `COc1cc(/C=C/[N+](=O)[O-])cc(OC)c1` the GI50 was 1.64 µM.

First: COc1ccc(C2CC(=O)Nc3c2c(C)nn3-c2nc3ccccc3[nH]2)cc1OC (configuration not stated)
Second: COc1cc2cc(C(=O)Nc3ccccc3)c(N)nc2cc1OC
The TGI of the first is lower: 16.8 µM for the first, greater than 100 µM for the second.

`Cc1ccccc1N=C(c1ccccc1)C1C(=O)c2ccccc2C1=O` and `Nc1cc2c3ccccc3ccc2c2ccccc12` cannot be ordered by TGI: greater than 100 µM for the first, greater than 100 µM for the second.

Going from `O=[N+]([O-])c1ccc(NC(c2ccccc2)c2ccc3cccnc3c2O)cc1` (configuration not stated) to `Clc1ccc(Nc2nnc(COc3ccccc3)c3ccccc23)cc1`, the TGI rises from 2.05 µM to 7.62 µM (3.7-fold).

Going from `c1ccc2c(c1)CCCc1nnc3nc4ccccc4n3c1-2` to `Nc1nc(N)c2c(n1)NC(c1ccc(Cl)cc1)C1CCc3ccccc3C1=N2` (configuration not stated), the TGI falls from 74.7 µM to 14.5 µM (5.2-fold).

First: COc1ccc(CNCCN2C(=O)c3ccc4c5c(ccc(c35)C2=O)C(=O)N(CCNCc2ccc(OC)c(OC)c2OC)C4=O)c(OC)c1OC
Second: COc1ccc(COc2ccc(Cc3cnc(N)nc3N)cc2OC)cc1
The TGI of the first is 120-fold lower: 0.164 µM for the first, 19.6 µM for the second.

Going from `CS(=O)(=O)Nc1cc(-c2ccc3ncnc(Nc4ccc(OCc5ccccn5)c(Cl)c4)c3c2)cnc1Cl` to `O=C(COc1ccc(Cl)cc1Cl)NNc1ccc([N+](=O)[O-])cc1`, the TGI rises from 0.78 µM to greater than 100 µM.

Compared with `O=C1NC(=O)/C(=C/c2ccc3nccc(-c4ccncc4)c3c2)S1`, `Fc1ccc(Nc2ccnc(N3CCN(c4ccnc5cc(Cl)ccc45)CC3)n2)cc1` is 16-fold higher in TGI: 1.17 µM for the first, 19.3 µM for the second.

Compared with `O=c1[nH]c(=O)n(C2C[C@@H](O)[C@@H](CO)O2)cc1F` (some centres not stated), `Cc1cc(C(=O)NOCCO)c(Nc2ccc(I)cc2F)n(C)c1=O` is higher in TGI: 36.3 µM for the first, greater than 100 µM for the second.

First: O=C(Nc1cccc(Cl)c1)Nc1cc(C(F)(F)F)ccc1Cl
Second: O=C(Nc1c(Cl)cccc1Cl)Oc1cccc2cccnc12
The TGI of the first is 2.9-fold lower: 4.73 µM for the first, 13.9 µM for the second.

Compared with `COc1ccc(N2CCN(c3nc(-c4ccccn4)nc4sc5c(c34)CCCCCC5)CC2)cc1`, `COc1cc(N2CCN(C(C)C)CC2)ccc1Nc1nc(Nc2ccc(F)cc2C(N)=O)c2cc[nH]c2n1` is lower in TGI: greater than 100 µM for the first, 5.49 µM for the second.

Compared with `COc1cc2cc(Oc3ccc(NC(=O)c4cccc(C(F)(F)F)c4)cc3)c(C)nc2cc1OCCN1CCCCC1`, `COc1cccc(/C=C/C(=O)c2cc3c(N)c(C(=O)Nc4ccccc4)sc3nc2C)c1` is 16-fold lower in TGI: 29.1 µM for the first, 1.84 µM for the second.

Compared with `CCCCCCCN(CCCCCCC)C(=N)c1ccc(OC)c2ccccc12`, `Cn1cc(-c2nc(-c3c[nH]c4ccccc34)cs2)c2cccnc21` is 3.4-fold lower in TGI: 2.81 µM for the first, 0.827 µM for the second.

Going from `COC1C[C@H](O[C@@H]2C[C@H](O[C@@H]3C[C@H](O[C@@H]4C(=O)c5c(cc6cc(O[C@H]7C[C@@H](O[C@H]8C[C@@H](O)[C@H](O)C(C)O8)[C@H](O)C(C)O7)c(C)c(O)c6c5O)C[C@H]4C(OC)C(=O)[C@@H](O)[C@@H](C)O)OC(C)[C@H]3O)OC(C)[C@@H]2O)OC(C)[C@@H]1O` (some centres not stated) to `C[C@H]1O[C@@H](O[C@H]2[C@@H](O)C[C@H](O[C@H]3[C@@H](O)C[C@H](O[C@H]4CC[C@]5(C)C6CC[C@]7(C)[C@@H](C8=CC(=O)OC8)CC[C@]7(O)C6CC[C@@H]5C4)O[C@@H]3C)O[C@@H]2C)C[C@H](O)[C@@H]1O` (some centres not stated), the TGI falls from 0.723 µM to 0.202 µM (3.6-fold).

`C#Cc1cccc(NC(=O)C2CCCCN2C(=O)CCl)c1` (configuration not stated) and `O=C(Nc1n[nH]c2cc(-c3ccc(F)cc3)ccc12)C1CC1` cannot be ordered by TGI: 34.1 µM for the first, greater than 16.2 µM for the second.

Compared with `C=C1C(=O)O[C@H]2[C@H]1CC/C(COC(=O)NCCc1ccc(Br)cc1)=C\CC[C@@]1(C)O[C@@H]21`, `CCN1C(=O)N(CC)C2C1NN=c1s/c(=C\c3ccc(Br)cc3)c(=O)n12` (configuration not stated) is 4.8-fold lower in TGI: 2.47 µM for the first, 0.516 µM for the second.

First: CC(=O)OCc1cc[c]([Hg][Cl])o1
Second: O=C(/C=C/c1cc2ccccc2[nH]c1=O)c1ccc(O)cc1
The TGI of the first is 1.5-fold lower: 3.44 µM for the first, 5.3 µM for the second.

First: Cc1cccc(Nc2ncc(-c3ccccc3)o2)c1
Second: CC1(/C=C/c2ccc(-c3ccccc3)cc2)CCn2cnc3ncnc(c32)N1O (configuration not stated)
The TGI of the first is higher: greater than 25 µM for the first, 0.872 µM for the second.

Going from `c1ccc(OCC[P+](c2ccccc2)(c2ccccc2)c2ccccc2)cc1` to `CN1CCN(CCCn2c3c(sc4ncccc43)c(=O)n3nnc(-c4ccccc4)c23)CC1`, the TGI rises from 0.736 µM to 3.25 µM (4.4-fold).

Going from `COc1cc(/C=C/[N+](=O)[O-])cc(OC)c1` to `Cc1c(-c2c(F)cc(C(N)=O)c3[nH]c4c(c23)CC[C@H](C(C)(C)O)C4)cccc1-n1c(=O)c2cccc(F)c2n(C)c1=O`, the TGI rises from 3.53 µM to greater than 100 µM.

In the case of `Cn1cc(-c2[nH]c3cc(NC(=O)[C@H](N)C4CCCCC4)cc4c3c2C=NNC4=O)cn1`, the GI50 is reported as 0.164 µM and 0.503 µM.
In the case of `Cc1cc(C(=O)NOCCO)c(Nc2ccc(I)cc2F)n(C)c1=O`, the GI50 is reported as > 10 µM and 68.2 µM.
With `O=C(Nc1ccc([N+](=O)[O-])cc1Cl)c1cc(Cl)ccc1O` the GI50 was 0.121 µM and 0.26 µM.
For `CNC(=O)c1cc(Oc2ccc(NC(=O)Nc3ccc(Cl)c(C(F)(F)F)c3)cc2)ccn1`, the GI50 was 1.42 µM and 2.03 µM and 2.09 µM.

`Cn1cc(-c2[nH]c3cc(NC(=O)[C@H](N)C4CCCCC4)cc4c3c2C=NNC4=O)cn1` was tested, and the TGI was 0.827 µM and > 5.3 µM.
In the case of `O=C(Nc1ccc([N+](=O)[O-])cc1Cl)c1cc(Cl)ccc1O`, the TGI is reported as 0.388 µM and 0.782 µM.
In the case of `CNC(=O)c1cc(Oc2ccc(NC(=O)Nc3ccc(Cl)c(C(F)(F)F)c3)cc2)ccn1`, the TGI is reported as 7.91 µM and 8.05 µM and 7.7 µM.
